Type in all cases: biochemical
Test [1] has as its target PI3K-alpha (Homo sapiens, UniProt P42336). Kind of test: PI3K-alpha fluorescence polarization assay. Conditions: read-out: PI3 Kinase α IC50. Here is the method:
(§1) The reaction buffer was 20 mM HEPES, pH 7.5, 2 mM MgCl2, 0.05% CHAPS; and 0.01% βME (added fresh). The Stop/Detection Buffer was 100 mM HEPES, pH 7.5, 4 mM EDTA, 0.05% CHAPS; ATP 20 mM in water; PIP2 (diC8, Echelon, Salt Lake City Utah cat #P-4508) 1 mM in water (MW=856.5). The GST-GRP was 1.75 mg/mL or 1.4 mg/mL in 10% glycerol. The Red detector (TAMRA) was 2.5 μM. Nunc 384-well black polypropylene fluorescent plates were used for PI3K assays.
(§2) The assay is run by placing 5 μL of diluted enzyme per well, then 5 μL of diluted compound (or 9.5 μL enzyme then 0.5 μL compound in DMSO) is added and mixed. Then, 10 μL substrate is added to start the reaction. The samples are incubated 30-60 minutes, then the reaction is stopped by adding 20 μL stop/detector mix. PI3K is diluted with reaction buffer (e.g., 5 μL or 7.5 μL PI3K into 620 μL reaction buffer), and 5 μL of diluted enzyme is used per well. A 5 μL portion of reaction buffer or of drug diluted in buffer (e.g., 4 μL/100 so final DMSO is 1% in reaction) is added to each. Pipetting up and down mixes the samples. Alternatively, the enzyme can be diluted to 1215 μL. In this case 9.8 μL is added per well and 0.2 μL compound is added in DMSO.
(§3) To prepare 1 mL of substrate solution, 955 μL reaction buffer, 40 μL PIP2, and 2.5 μL ATP are mixed. 10 μL of substrate is added to each well to start the reaction. […] The stop/detector mix is prepared by mixing 4 μL Red detector and 1.6 μL or 2.0 μL GST-GRP with 1 mL stop buffer, which results in 10 nM probe and 70 nM GST-GRP. 20 μL of the stop/detector mix is added to each well to stop the reaction. The plates are read after 30-90 minutes keeping the red probe solutions dark. For the zero time point, stop/detector mix is added to the enzyme just before adding substrate. For an extra control, stop/detector mix is added to buffer (no enzyme) and substrate or to just buffer (no substrate). […] The recommended reaction has 0.06 μL per 20 μL (0.015 μg/20 μL) or 0.01125 μg/15 μL or 0.75 μg/mL.
(§4) Plates are read on machines with filters for TAMRA. The units are mP with no enzyme controls reading app 190-220 mP units. Fully active enzyme reduces fluorescence polarization down to 70-100 mP after 30 minutes. An active compound raises the mP values halfway to control or to 120-150 mP units.
(Polarisation of emitted light reports the rotation of a fluorescent probe.)

Test [2] has as its target Human mTOR (Homo sapiens, UniProt P42345). Kind of test: mTOR kinase assay (DELFIA format, purified enzyme). On the set-up: FLAG. Conditions: read-out: TOR Kinase IC50.
For test [3], the target named is PI3K-gamma (Homo sapiens, UniProt P48736). Kind of test: PI3K-gamma fluorescence polarization assay. The note with it: read-out: PI3 Kinase γ IC50. Here is the method:
as §1, §2, §3, §4

Bounds are passed on as bounds.

PI3K-gamma, sequence (P48736 whole entry, species assumed): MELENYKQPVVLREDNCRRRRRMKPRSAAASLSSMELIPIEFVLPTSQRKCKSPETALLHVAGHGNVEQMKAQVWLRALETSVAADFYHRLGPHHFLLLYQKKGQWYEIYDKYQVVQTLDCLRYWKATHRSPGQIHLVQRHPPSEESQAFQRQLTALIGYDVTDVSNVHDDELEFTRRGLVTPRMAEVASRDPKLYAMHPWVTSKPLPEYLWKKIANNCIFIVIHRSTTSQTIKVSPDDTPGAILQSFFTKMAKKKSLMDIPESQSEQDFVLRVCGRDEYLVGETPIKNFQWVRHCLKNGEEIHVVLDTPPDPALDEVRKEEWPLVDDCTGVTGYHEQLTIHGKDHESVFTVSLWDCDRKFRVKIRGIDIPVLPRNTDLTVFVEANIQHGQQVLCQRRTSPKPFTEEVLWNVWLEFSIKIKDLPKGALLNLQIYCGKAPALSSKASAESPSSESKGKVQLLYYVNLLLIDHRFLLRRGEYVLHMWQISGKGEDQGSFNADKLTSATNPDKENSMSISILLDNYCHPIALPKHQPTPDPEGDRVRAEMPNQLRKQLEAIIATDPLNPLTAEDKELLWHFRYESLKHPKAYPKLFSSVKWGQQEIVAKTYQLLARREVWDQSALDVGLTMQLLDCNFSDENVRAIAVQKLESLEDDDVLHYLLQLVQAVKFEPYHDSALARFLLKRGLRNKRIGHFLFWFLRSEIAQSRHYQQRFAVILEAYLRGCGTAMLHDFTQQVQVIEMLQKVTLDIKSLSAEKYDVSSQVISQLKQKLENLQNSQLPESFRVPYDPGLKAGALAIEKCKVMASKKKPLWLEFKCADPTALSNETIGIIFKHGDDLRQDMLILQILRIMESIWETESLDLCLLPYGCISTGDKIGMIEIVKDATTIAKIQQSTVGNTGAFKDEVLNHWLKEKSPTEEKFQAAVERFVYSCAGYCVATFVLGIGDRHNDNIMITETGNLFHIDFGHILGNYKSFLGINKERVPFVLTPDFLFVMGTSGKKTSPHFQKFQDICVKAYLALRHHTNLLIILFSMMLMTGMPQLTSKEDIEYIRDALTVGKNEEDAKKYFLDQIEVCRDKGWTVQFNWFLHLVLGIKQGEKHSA
PI3K-alpha, sequence (P42336 whole entry, species assumed): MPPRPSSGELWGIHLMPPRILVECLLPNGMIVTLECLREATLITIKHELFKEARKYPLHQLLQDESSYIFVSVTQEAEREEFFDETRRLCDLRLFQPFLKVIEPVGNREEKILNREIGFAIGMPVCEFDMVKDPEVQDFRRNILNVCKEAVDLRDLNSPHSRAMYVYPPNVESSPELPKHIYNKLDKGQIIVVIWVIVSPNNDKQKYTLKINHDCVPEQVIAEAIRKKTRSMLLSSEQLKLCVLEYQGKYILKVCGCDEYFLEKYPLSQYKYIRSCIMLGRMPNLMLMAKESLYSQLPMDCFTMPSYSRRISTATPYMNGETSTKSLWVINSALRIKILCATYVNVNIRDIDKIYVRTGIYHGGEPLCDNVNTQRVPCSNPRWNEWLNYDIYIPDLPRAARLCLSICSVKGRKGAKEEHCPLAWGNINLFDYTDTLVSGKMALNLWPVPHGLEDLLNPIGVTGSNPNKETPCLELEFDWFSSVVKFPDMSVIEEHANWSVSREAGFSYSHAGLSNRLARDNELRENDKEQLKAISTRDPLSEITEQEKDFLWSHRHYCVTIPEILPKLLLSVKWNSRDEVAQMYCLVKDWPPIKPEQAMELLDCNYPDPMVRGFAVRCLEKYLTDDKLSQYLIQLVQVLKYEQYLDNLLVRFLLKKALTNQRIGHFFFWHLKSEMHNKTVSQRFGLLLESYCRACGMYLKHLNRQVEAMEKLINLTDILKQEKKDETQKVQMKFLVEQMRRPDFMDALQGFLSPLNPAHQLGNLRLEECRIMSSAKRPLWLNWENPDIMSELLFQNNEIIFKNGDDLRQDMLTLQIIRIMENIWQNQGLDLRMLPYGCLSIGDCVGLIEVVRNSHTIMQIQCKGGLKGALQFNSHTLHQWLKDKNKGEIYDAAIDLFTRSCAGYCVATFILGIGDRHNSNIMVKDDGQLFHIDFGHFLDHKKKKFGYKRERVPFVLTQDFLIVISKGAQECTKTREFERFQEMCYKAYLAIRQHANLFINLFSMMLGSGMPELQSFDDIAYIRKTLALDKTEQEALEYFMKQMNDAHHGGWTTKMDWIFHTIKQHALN
PI3K-alpha, sequence (P27986 whole entry partner, species assumed): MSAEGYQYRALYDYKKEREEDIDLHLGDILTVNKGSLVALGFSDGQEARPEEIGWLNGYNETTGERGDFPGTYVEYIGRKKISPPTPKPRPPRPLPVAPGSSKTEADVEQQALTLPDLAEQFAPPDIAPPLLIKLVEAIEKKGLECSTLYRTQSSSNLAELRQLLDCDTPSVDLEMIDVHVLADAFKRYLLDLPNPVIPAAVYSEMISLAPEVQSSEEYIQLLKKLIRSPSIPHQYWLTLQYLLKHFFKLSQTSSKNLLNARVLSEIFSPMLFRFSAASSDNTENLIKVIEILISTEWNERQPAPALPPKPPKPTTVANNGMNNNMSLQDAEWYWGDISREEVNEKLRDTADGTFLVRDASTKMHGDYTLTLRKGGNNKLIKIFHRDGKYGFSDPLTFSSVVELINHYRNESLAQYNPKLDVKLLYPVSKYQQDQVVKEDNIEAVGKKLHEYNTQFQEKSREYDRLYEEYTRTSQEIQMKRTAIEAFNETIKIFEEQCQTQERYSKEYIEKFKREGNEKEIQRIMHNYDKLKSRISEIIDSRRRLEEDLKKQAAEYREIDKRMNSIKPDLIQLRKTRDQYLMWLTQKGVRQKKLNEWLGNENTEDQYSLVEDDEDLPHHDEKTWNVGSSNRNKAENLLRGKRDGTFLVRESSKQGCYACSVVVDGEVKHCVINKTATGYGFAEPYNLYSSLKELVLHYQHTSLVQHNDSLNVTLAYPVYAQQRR

Take `CN(C)CCCNC(=O)Nc1ccc(-c2nc(N3CCOCC3)c3ccc4c(ccn4C)c3n2)cc1` [Example 5, 1-[3-(dimethylamino)propyl]-3-[4-(7-methyl-4-morpholin-4-yl-7H-pyrrolo[2,3-h]quinazolin-2-yl)phenyl]urea]: the IC50 in test [1] was 2700 nM; in test [2] it was 2050 nM.

Take `CN1CCN(C(=O)Nc2ccc(-c3nc(N4CCOCC4)c4ccc5c(ccn5C)c4n3)cc2)CC1` [Example 6, 4-methyl-N-[4-(7-methyl-4-morpholin-4-yl-7H-pyrrolo[2,3-h]quinazolin-2-yl)phenyl]piperazine-1-carboxamide]: the IC50 in test [1] is 7630 nM; in test [2], 2550 nM.

With `CN(C)S(=O)(=O)Nc1cccc(-c2nc(N3CCOCC3)c3ccc4c(ccn4C)c3n2)c1` [Example 55, N,N-dimethyl-N′-[3-(7-methyl-4-morpholin-4-yl-7H-pyrrolo[2,3-h]quinazolin-2-yl)phenyl]sulfamide], the IC50 in test [1] was determined as 4340 nM; in test [3], 6.16 µM; in test [2], 525 nM.

Regarding `CS(=O)(=O)n1ccc2c3nc(-c4cccc(CO)c4)nc(N4CCOCC4)c3ccc21` [Example 74, {3-[7-(methylsulfonyl)-4-morpholin-4-yl-7H-pyrrolo[2,3-h]quinazolin-2-yl]phenyl}methanol], the results for the IC50 in test [1], in test [3] and in test [2] were 212 nM, 1.19 µM and 545 nM, respectively.

On to `Cn1ccc2c3nc(-c4cccc(C#N)c4)nc(N4CCOCC4)c3ccc21` [Example 40, 3-(7-methyl-4-morpholin-4-yl-7H-pyrrolo[2,3-h]quinazolin-2-yl)benzonitrile], for which the IC50 in test [2] worked out at 2300 nM.

Regarding `CN(C)CCn1ccc2c3nc(-c4cccc(CO)c4)nc(N4CCOCC4)c3ccc21` [Example 30, (3-{7-[2-(dimethylamino)ethyl]-4-morpholin-4-yl-7H-pyrrolo[2,3-h]quinazolin-2-yl}phenyl)methanol], the IC50 came out at 455 nM in test [1], 4.95 µM in test [3] and 9150 nM in test [2].

Turning to `CC(=O)NCc1cccc(-c2nc(N3CCOCC3)c3ccc4c(ccn4C)c3n2)c1` [Example 44, N-[3-(7-methyl-4-morpholin-4-yl-7H-pyrrolo[2,3-h]quinazolin-2-yl)benzyl]acetamide], the IC50 amounted to 9360 nM in test [1], 9.5 µM in test [3] and 4000 nM in test [2].

`Cn1ccc2c3nc(-c4ccc(NC(=O)Nc5ccc(C(F)(F)F)cc5)cc4)nc(N4CCOCC4)c3ccc21` [Example 14, 1-[4-(7-methyl-4-morpholin-4-yl-7H-pyrrolo[2,3-h]quinazolin-2-yl)phenyl]-3-[4-(trifluoromethyl)phenyl]urea]: the IC50 in test [1] came to 239 nM; in test [3], 0.634 µM; in test [2], 125 nM.

Regarding `O=S(=O)(c1ccccc1)n1ccc2c3nc(-c4cccc(CO)c4)nc(N4CCOCC4)c3ccc21` [Example 70, {3-[4-morpholin-4-yl-7-(phenylsulfonyl)-7H-pyrrolo[2,3-h]quinazolin-2-yl]phenyl}methanol], the IC50 was 168 nM in test [1], 2.07 µM in test [3] and 5800 nM in test [2].

In the case of `CC(C)c1ccc(NC(=O)Nc2ccc(-c3nc(N4CCOCC4)c4ccc5c(ccn5C)c4n3)cc2)cc1` [Example 12, 1-(4-isopropylphenyl)-3-[4-(7-methyl-4-morpholin-4-yl-7H-pyrrolo[2,3-h]quinazolin-2-yl)phenyl]urea], the IC50 in test [1] came to 2000 nM; in test [3] it was 1.33 µM; in test [2], 355 nM.

Regarding `CCNC(=O)Nc1ccc(-c2nc(N3CCOCC3)c3ccc4c(ccn4C)c3n2)cc1` [Example 3, 1-ethyl-3-[4-(7-methyl-4-morpholin-4-yl-7H-pyrrolo[2,3-h]quinazolin-2-yl)phenyl]urea], the values for the IC50 in test [1], in test [3] and in test [2] were 2110 nM, 4.04 µM and 35 nM, respectively.

Regarding `Cn1ccc2c3nc(-c4ccc(N)cc4)nc(N4CCOCC4)c3ccc21` [Example 1, 4-(7-methyl-4-morpholin-4-yl-7H-pyrrolo[2,3-h]quinazolin-2-yl)aniline], the IC50 in test [1] is 6480 nM; in test [2], 805 nM.

Consider `COC(=O)c1ccc(-c2nc(N3CCOCC3)c3ccc4c(ccn4C)c3n2)cc1` [Example 36, Methyl 4-(7-methyl-4-morpholin-4-yl-7H-pyrrolo[2,3-h]quinazolin-2-yl)benzoate], for which the results for the IC50 in test [1], in test [3] and in test [2] were 1760 nM, 4 µM and 1600 nM, respectively.

Consider `OCc1cccc(-c2nc(N3CCOCC3)c3ccc4c(ccn4Cc4ccccc4)c3n2)c1` [Example 83, [3-(7-benzyl-4-morpholin-4-yl-7H-pyrrolo[2,3-h]quinazolin-2-yl)phenyl]methanol], for which the IC50 in test [1] worked out at 123 nM; in test [3], 0.32 µM; in test [2], 1700 nM.

In the case of `Cn1ccc2c3nc(-c4cccc5[nH]ccc45)nc(N4CCOCC4)c3ccc21` [Example 45, 2-(1H-indol-4-yl)-7-methyl-4-morpholin-4-yl-7H-pyrrolo[2,3-h]quinazoline], the IC50 turned out to be 2460 nM in test [1], 2.83 µM in test [3] and 1130 nM in test [2].

For `Cn1ccc2c3nc(-c4ccc(NC(=O)Nc5ccccn5)cc4)nc(N4CCOCC4)c3ccc21` [Example 9, 1-[4-(7-methyl-4-morpholin-4-yl-7H-pyrrolo[2,3-h]quinazolin-2-yl)phenyl]-3-pyridin-2-ylurea], the IC50 in test [1] came to 2700 nM; in test [3] it was 5.13 µM; in test [2] it was 75 nM.

Consider `Cn1ccc2c3nc(-c4ccc(NC(=O)c5ccc(F)cc5)cc4)nc(N4CCOCC4)c3ccc21` [Example 19, 4-fluoro-N-[4-(7-methyl-4-morpholin-4-yl-7H-pyrrolo[2,3-h]quinazolin-2-yl)phenyl]benzamide], for which the IC50 in test [1] was found to be 12000 nM; in test [3], 6.17 µM; in test [2] it was 1250 nM.

For the molecule `CS(=O)(=O)n1ccc2c3nc(-c4cccc(O)c4)nc(N4CCOCC4)c3ccc21` [Example 59, 3-[7-(methylsulfonyl)-4-morpholin-4-yl-7H-pyrrolo[2,3-h]quinazolin-2-yl]phenol], the half-maximal inhibitory concentration (IC50) in test [1] came to 63 nM; in test [3], 0.56 µM; in test [2], 2600 nM.

On to `COc1ccc(-c2nc(N3CCOCC3)c3ccc4c(ccn4C)c3n2)cn1` [Example 47, 2-(6-methoxypyridin-3-yl)-7-methyl-4-morpholin-4-yl-7H-pyrrolo[2,3-h]quinazoline], for which the IC50 in test [1] is greater than 10000 nM; in test [3], greater than 10 µM; in test [2], 2050 nM.

In the case of `Cn1ccc2c3nc(-c4cnc(O)nc4)nc(N4CCOCC4)c3ccc21` [Example 51, 5-(7-methyl-4-morpholin-4-yl-7H-pyrrolo[2,3-h]quinazolin-2-yl)pyrimidin-2-ol], the IC50 in test [1] was greater than 10000 nM; in test [3] it was greater than 10 µM.

On to `Cn1ccc2c3nc(-c4cccc(F)c4)nc(N4CCOCC4)c3ccc21` [Example 52, 2-(3-fluorophenyl)-7-methyl-4-morpholin-4-yl-7H-pyrrolo[2,3-h]quinazoline], for which the half-maximal inhibitory concentration (IC50) in test [1] stood at 8880 nM; in test [3], 3.67 µM.

`Cn1ccc2c3nc(-c4ccc(C(=O)O)cc4)nc(N4CCOCC4)c3ccc21` [Example 38, 4-(7-methyl-4-morpholin-4-yl-7H-pyrrolo[2,3-h]quinazolin-2-yl)benzoic acid]: the IC50 in test [2] is 4000 nM.

`Cn1ccc2c3nc(-c4cccc(C(N)=O)c4)nc(N4CCOCC4)c3ccc21` [Example 39, 3-(7-methyl-4-morpholin-4-yl-7H-pyrrolo[2,3-h]quinazolin-2-yl)benzamide]: in test [2], the IC50 was 1720 nM.

As to `Cn1ccc2c3nc(-c4ccc(NS(C)(=O)=O)cc4)nc(N4CCOCC4)c3ccc21` [Example 21, N-[4-(7-methyl-4-morpholin-4-yl-7H-pyrrolo[2,3-h]quinazolin-2-yl)phenyl]methanesulfonamide], the IC50 is 7830 nM in test [1] and greater than 10 µM in test [3].

`CCCNC(=O)Nc1ccc(-c2nc(N3CCOCC3)c3ccc4c(ccn4C)c3n2)cc1` [Example 54, 1-[4-(7-methyl-4-morpholin-4-yl-7H-pyrrolo[2,3-h]quinazolin-2-yl)phenyl]-3-propylurea]: in test [2], the IC50 was 21 nM.

As usually defined, the IC50 is the midpoint of a concentration-inhibition curve.

These data come from patent publication US20090227575A1, “7H-PYRROLO[2,3-H]QUINAZOLINE COMPOUNDS, THEIR USE AS mTOR KINASE AND PI3 KINASE INHIBITORS, AND THEIR [sequence]” (Wyeth, priority 2008, published 2009).
